According to ChEMBL document CHEMBL4130457, “Discovery of AZD-2098 and AZD-1678, Two Potent and Bioavailable CCR4 Receptor Antagonists” (ACS Med Chem Lett, 2017):
≈ marks a conversion by molar mass, not a printed value. Calls of active or inactive are those of the source. The rule behind the calls is not given here.

Tests used:
[1] = target: T1, C-C chemokine receptor type 4 (Homo sapiens, UniProt P51679); experiment: Antagonist activity at recombinant human CCR4 expressed in CHO-K1 cells assessed as inhibition of CCL22 induced Ca2+ mobilization after 2 hrs by FMAT based fluorescence assay; assay type: functional, cell-based
T1 sequence (P51679 whole entry): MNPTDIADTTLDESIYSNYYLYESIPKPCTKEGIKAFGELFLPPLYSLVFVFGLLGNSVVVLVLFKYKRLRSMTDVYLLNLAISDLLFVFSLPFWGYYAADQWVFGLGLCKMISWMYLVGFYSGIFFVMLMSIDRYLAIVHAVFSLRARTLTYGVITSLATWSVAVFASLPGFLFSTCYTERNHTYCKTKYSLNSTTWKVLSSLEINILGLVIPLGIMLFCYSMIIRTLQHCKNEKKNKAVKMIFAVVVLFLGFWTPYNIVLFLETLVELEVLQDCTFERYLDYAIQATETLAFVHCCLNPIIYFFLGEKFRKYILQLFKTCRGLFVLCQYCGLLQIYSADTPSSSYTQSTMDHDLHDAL

[2] = system: Rattus norvegicus; experiment: Antiinflammatory activity in OVA-induced Brown Norway rat lung assessed as reduction in leukocyte trafficking in microvasculature administered po bid 1 hr prior to antigen challenge and every 12 hrs prior to termination 96 hrs post challenge by histopathological analysis; assay type: functional, organism-based
[3] = system: Hepatocyte; experiment: Stability in human hepatocytes assessed per million cells
[4] = Lipophilicity, log P of the compound; assay type: physicochemical; conditions: octanol/water
[5] = Ratio of free plasma concentration in Brown Norway rat at 15 umol/kg to pIC50 for recombinant human CCR4 expressed in CHO-K1 cells; assay type: ADME, cell-based; conditions: in vivo
[6] = target: C-C chemokine receptor type 8 (Homo sapiens) (UniProt P51685); experiment: Antagonist activity at CCR8 (unknown origin) at 10 uM; assay type: functional
Sequence of C-C chemokine receptor type 8 (Homo sapiens) (P51685 whole entry): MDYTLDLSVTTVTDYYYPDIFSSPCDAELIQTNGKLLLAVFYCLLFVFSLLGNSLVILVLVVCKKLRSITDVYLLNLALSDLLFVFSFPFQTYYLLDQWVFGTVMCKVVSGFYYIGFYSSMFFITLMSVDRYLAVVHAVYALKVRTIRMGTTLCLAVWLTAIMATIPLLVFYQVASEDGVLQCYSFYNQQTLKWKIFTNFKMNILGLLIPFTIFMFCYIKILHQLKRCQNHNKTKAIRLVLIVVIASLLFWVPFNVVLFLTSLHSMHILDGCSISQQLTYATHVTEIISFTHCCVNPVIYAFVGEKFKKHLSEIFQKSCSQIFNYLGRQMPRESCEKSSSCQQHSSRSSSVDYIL

[7] = system: Rattus norvegicus; experiment: Antiinflammatory activity in OVA-induced Brown Norway rat lung assessed as reduction in alveolitis administered po bid 1 hr prior to antigen challenge and every 12 hrs prior to termination 96 hrs post challenge by histopathological analysis; assay type: functional, organism-based
[8] = target: T1, C-C chemokine receptor type 4; experiment: Antagonist activity at human CCR4 expressed in CHO cells coexpressing CD4+ assessed as inhibition of CCL22 induced Ca2+ mobilization; assay type: functional, cell-based
[9] = Clearance in dog at 9 umol/kg, po or 3 umol/kg, iv; assay type: ADME, organism-based, Canis lupus familiaris; conditions: in vivo
[10] = Protein binding in human plasma; assay type: ADME, cell-free; conditions: read-out: PPB (converted)
[11] = target: T2, C-C chemokine receptor type 4 (Mus musculus, UniProt P51680); experiment: Antagonist activity at mouse CCR4; assay type: functional
T2 sequence (P51680 whole entry): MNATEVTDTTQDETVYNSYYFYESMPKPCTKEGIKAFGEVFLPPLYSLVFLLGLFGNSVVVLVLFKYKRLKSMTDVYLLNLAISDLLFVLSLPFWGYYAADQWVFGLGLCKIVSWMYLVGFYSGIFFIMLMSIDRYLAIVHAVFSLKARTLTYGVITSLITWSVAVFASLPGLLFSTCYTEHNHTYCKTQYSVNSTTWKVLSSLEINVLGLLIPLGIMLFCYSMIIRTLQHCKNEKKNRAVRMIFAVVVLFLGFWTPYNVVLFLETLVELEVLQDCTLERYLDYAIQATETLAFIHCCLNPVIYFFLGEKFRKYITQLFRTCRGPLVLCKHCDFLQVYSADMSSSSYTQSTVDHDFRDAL

[12] = target: T3, C-C chemokine receptor type 4 (Homo sapiens) (UniProt P51679); experiment: Agonist activity at CCR4 (unknown origin) up to 10 uM; assay type: functional
T3 sequence (whole entry): T1 sequence (P51679 whole entry)

[13] = Half life in rat at 9 umol/kg, po or 3 umol/kg, iv; assay type: ADME, organism-based; conditions: in vivo
[14] = Clearance in rat at 9 umol/kg, po or 3 umol/kg, iv; assay type: ADME, organism-based; conditions: in vivo
[15] = Oral bioavailability in dog at 9 umol/kg; assay type: ADME, organism-based, Canis lupus familiaris; conditions: in vivo
[16] = Ratio of free plasma concentration in Brown Norway rat at 3 umol/kg to pIC50 for recombinant human CCR4 expressed in CHO-K1 cells; assay type: ADME, cell-based; conditions: in vivo
[17] = Oral bioavailability in rat at 9 umol/kg; assay type: ADME, organism-based; conditions: in vivo
[18] = target: C-C chemokine receptor type 2 (Homo sapiens) (UniProt P41597); experiment: Antagonist activity at CCR2b (unknown origin) at 10 uM
Sequence of C-C chemokine receptor type 2 (Homo sapiens) (P41597 whole entry, looked up): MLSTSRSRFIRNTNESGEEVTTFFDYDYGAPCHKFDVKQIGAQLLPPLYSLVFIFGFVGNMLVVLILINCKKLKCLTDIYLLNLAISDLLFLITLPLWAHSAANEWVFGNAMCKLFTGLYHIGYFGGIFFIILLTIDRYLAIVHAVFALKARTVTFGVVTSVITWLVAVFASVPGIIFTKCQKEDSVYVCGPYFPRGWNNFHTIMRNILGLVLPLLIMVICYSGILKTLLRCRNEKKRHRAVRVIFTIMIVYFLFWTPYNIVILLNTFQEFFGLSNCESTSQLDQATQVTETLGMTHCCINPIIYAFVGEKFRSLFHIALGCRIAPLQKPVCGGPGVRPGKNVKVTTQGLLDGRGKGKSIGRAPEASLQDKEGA

[19] = Ratio of free plasma concentration in Brown Norway rat at 7.5 umol/kg to pIC50 for recombinant human CCR4 expressed in CHO-K1 cells; assay type: ADME, cell-based; conditions: in vivo
[20] = Terminal trough concentration in OVA-induced Brown Norway rat plasma at 3 umol/kg, po bid measured 12 hrs post last dose; assay type: ADME, organism-based; conditions: read-out: Cmin
[21] = target: T4, C-C chemokine receptor type 4 (Canis lupus familiaris, UniProt Q8MJW8); experiment: Antagonist activity at dog CCR4
T4 sequence (Q8MJW8 whole entry): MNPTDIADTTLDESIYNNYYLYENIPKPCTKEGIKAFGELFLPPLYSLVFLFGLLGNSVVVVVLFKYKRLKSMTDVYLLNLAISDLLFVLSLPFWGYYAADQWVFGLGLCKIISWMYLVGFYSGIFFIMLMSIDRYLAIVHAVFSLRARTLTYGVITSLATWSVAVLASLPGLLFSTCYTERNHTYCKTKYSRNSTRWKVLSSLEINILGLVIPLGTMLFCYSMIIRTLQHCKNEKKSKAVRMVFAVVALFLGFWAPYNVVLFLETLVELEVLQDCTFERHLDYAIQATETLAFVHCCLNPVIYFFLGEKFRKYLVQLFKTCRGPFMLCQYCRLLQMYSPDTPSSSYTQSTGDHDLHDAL

[22] = target: T5, C-C chemokine receptor type 7 (Homo sapiens) (UniProt P32248); experiment: Antagonist activity at CCR7 (unknown origin) at 10 uM; assay type: functional
T5 sequence (whole entry): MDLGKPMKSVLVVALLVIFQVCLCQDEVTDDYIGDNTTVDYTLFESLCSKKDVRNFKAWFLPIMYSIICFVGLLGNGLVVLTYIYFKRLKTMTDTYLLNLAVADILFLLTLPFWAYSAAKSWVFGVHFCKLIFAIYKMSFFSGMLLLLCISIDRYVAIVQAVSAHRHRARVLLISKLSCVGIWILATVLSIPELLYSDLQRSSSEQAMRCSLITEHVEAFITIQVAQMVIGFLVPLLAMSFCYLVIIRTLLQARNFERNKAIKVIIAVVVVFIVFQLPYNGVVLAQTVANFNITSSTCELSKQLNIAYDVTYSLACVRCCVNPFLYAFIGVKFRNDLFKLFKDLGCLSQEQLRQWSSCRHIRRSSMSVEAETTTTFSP

[23] = Lipophilicity, log D of the compound; assay type: physicochemical; conditions: octanol/water
[24] = Solubility of the compound; assay type: physicochemical
[25] = Terminal trough concentration in OVA-induced Brown Norway rat plasma at 15 umol/kg, po bid measured 12 hrs post last dose; assay type: ADME, organism-based; conditions: read-out: Cmin
[26] = system: Rattus norvegicus; experiment: Terminal trough concentration in OVA-induced Brown Norway rat plasma at 0.22 to 2.2 umol/kg, po bid measured 12 hrs post last dose; assay type: ADME, organism-based; conditions: in vivo, BLD = below limit of detection

## COc1nccnc1NS(=O)(=O)c1cccc(Cl)c1Cl
[1]
  IC50: 15.8 nM
[2]
  Activity: Dose-dependent effect
[3]
  Stability: < 0.2 uL/ml
[4]
  logP: 2.5
[5]
  Ratio: 9
[6]
  Activity: inactive
[7]
  Activity: Dose-dependent effect
[8]
  IC50: 31.6 nM
[9]
  clearance: 1.5 mL/min/kg
[10]
  fraction unbound: 0.011
[11]
  IC50: 10 nM
[12]
  Activity: inactive
[13]
  half-life: 1.7 h
[14]
  clearance: 2 mL/min/kg
[15]
  bioavailability: 100%
[16]
  Ratio: 0.6
[17]
  bioavailability: 100%
[18]
  Activity: inactive
[19]
  Ratio: 3
[20]
  concentration at 12 h: 33 nM
[21]
  IC50: 25.1 nM
[22]
  Activity: inactive
[23]
  logD: 0.35
[24]
  solubility: 1500 µg/mL (≈ 4.49 mM)
[25]
  concentration at 12 h: 490 nM
[26]
  Cmin: Bld
